Values of other authors in patent publication EP4563141A1, “SELF-EMULSIFYING FORMULATION FOR TOPICAL USE” (Guidotti, Elena, priority 2023, dated 2025).
Read-outs that look alike come from different tables or passages of the source.

Legend:
[1] = system: S. aureus biofilm formation; details: 0.01% (v/v); trans-nerolidol at a similar concentration
CB2 = CB2 (Homo sapiens, UniProt P34972)
CB1 = CB1 (Homo sapiens, UniProt P21554)
[2] = human; 4% nerolidol (unspecified isomer); single occlusive application for 48 h
[3] = not given; remark: listed apart in the source
[4] = several drugs, particularly 5-fluorouracil, with the use of nerolidol
[5] = not given; remark: listed apart in the source
[6] = human; 4% (unspecified isomer); maximization tests or repeated insult tests
[7] = compared with animals in the control group

Sequence of CB2 (P34972 whole entry, species assumed): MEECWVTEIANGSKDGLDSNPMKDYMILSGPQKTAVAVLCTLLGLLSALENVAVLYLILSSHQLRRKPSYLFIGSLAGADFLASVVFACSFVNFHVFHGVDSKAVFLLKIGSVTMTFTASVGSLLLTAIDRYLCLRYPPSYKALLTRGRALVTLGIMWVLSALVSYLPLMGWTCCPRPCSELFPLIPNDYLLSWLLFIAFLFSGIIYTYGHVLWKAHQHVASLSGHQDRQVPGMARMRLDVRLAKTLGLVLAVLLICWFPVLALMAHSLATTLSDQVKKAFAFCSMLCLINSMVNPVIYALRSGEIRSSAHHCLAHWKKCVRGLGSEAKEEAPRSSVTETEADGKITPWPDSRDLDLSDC
Sequence of CB1 (P21554 whole entry, species assumed): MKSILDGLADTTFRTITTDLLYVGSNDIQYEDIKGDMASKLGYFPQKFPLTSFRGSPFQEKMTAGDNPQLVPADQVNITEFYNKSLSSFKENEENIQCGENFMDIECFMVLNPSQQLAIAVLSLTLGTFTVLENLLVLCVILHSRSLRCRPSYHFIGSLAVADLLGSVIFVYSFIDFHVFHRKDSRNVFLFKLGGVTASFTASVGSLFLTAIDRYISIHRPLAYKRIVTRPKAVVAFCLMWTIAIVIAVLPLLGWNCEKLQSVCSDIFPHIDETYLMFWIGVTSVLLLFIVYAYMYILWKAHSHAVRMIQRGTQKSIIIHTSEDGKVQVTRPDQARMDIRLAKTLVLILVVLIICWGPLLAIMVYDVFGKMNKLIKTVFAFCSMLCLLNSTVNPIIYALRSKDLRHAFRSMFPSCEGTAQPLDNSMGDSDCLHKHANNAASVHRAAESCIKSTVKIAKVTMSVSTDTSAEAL

Question: Which “inhibit S. aureus biofilm formation” value [1] does the source give for C=CC(C)(O)CC/C=C(/C)CCC=C(C)C (stereo not drawn) [Cis-nerolidol] here?
Answer: more than 80%

Question: With C=CCc1ccc(O)c(-c2ccc(O)c(CC=C)c2)c1 [honokiol] as the compound, how does the “mode of activity at CB2” value (CB2) read?
Answer: antagonistic properties

Question: And the LogP?
Answer: over 4

Question: What about the “mode of activity at CB1” value (CB1) of the same compound?
Answer: full agonistic activity

Question: With C=CCc1ccc(O)c(-c2cc(CC=C)ccc2O)c1 [magnolol] as the compound, how does the “mode of activity at CB2” value (CB2) read?
Answer: partial CBD receptor agonist

Question: And the LogP?
Answer: over 4

Question: For C=CC(C)(O)CCC=C(C)CCC=C(C)C (centres unmarked) [nerolidol, 3,7,11-trimethyl-1,6,10-Dodecatrien-3-ol], which skin irritation [2] is on record?
Answer: did not cause skin irritation

Question: What about the cross-sensitization ([3]; guinea pigs induced with farnesyl acetate) of the same compound?
Answer: no cross-sensitization was observed

Question: And the skin sensitization ([3]; guinea pigs, two adjuvant tests, concentrations of 3% and 10%)?
Answer: weak reactions

Question: What about the “increase in diffusion rate for transdermal penetration” value [4] of the same compound?
Answer: more than 20 fold

Question: What about the skin irritation ([5]; 5% in diethyl phthalate, eliminated after 48 h) of the same compound?
Answer: very mild edema in one animal

Question: And the skin irritation ([5]; rabbits, undiluted (unspecified isomer), intact and abraded skin, after 48 h)?
Answer: well-defined erythema or mild edema

Question: What about the skin sensitization [6] of the same compound?
Answer: did not cause positive reactions

Question: And the “reduction in ulcerative lesion index (ULI)” value ([7]; 50 mg/k)?
Answer: 41.22

Question: What about the “reduction in ulcerative lesion index (ULI)” value ([7]; 250 mg/k) of the same compound?
Answer: 51.31

Question: What about the “reduction in ulcerative lesion index (ULI)” value ([7]; 500 mg/k) of the same compound?
Answer: 56.57

Question: For C=CC(C)(O)CC/C=C(\C)CCC=C(C)C (stereo not drawn) [trans-nerolidol], which “inhibit S. aureus biofilm formation” value [1] is on record?
Answer: 45%
